PubChem BioAssay (NCI)
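Following 48 hours of exposure in 96-well plates, responses at five concentrations were used to interpolate endpoints linearly. TGI denotes the concentration required for complete inhibition of growth.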

How the values were obtained:
Experiment in all cases: NCI tumour cell line growth inhibition, 48 h
[1] = test system: COLO 205 colon
[2] = test system: RPMI-8226 leukemia
[3] = test system: MDA-N
[4] = test system: A549 NSCLC
[5] = test system: HCT-15 colon
[6] = test system: CAKI-1 renal
[7] = test system: HOP-92 NSCLC
[8] = test system: HCT-116 colon
[9] = test system: UACC-257 melanoma
[10] = test system: OVCAR-3 ovarian
[11] = test system: SK-MEL-2 melanoma
[12] = test system: BT-549 breast
[13] = test system: MDA-MB-435
[14] = test system: NCI-H23 lung
[15] = test system: SR leukemia
[16] = test system: NCI-H460 lung
[17] = test system: K-562 leukemia
[18] = test system: HOP-62 NSCLC
[19] = test system: HL-60(TB) leukemia
[20] = test system: PC-3 prostate
[21] = test system: SN12C renal
[22] = test system: SF-539 CNS
[23] = test system: MOLT-4 leukemia
[24] = test system: CCRF-CEM leukemia
[25] = test system: MCF7 breast
[26] = test system: UACC-62 melanoma
[27] = test system: MDA-MB-231 breast
[28] = test system: 786-0 renal
[29] = test system: HS 578T breast
[30] = test system: T-47D breast
[31] = test system: ACHN renal
[32] = test system: MALME-3M melanoma
[33] = test system: NCI-H522 lung
[34] = test system: EKVX NSCLC
[35] = test system: SK-MEL-5 melanoma
[36] = test system: SNB-19 CNS
[37] = test system: U251 CNS
[38] = test system: SF-268 CNS
[39] = test system: SW-620 colon
[40] = test system: IGROV1 ovarian
[41] = test system: KM12 colon
[42] = test system: M14 melanoma
[43] = test system: SK-OV-3 ovarian
[44] = test system: NCI/ADR-RES ovarian
[45] = test system: HT29 colon
[46] = test system: UO-31 renal
[47] = test system: OVCAR-8 ovarian
[48] = test system: DU-145 prostate
[49] = test system: TK-10 renal
[50] = test system: SF-295 CNS
[51] = test system: OVCAR-5 ovarian
[52] = test system: LOX IMVI melanoma
[53] = test system: SNB-75 CNS
[54] = test system: OVCAR-4 ovarian
[55] = test system: HCC-2998 colon
[56] = test system: SK-MEL-28 melanoma
[57] = test system: NCI-H226 lung
[58] = test system: RXF 393 renal

C1=CN2C[n+]3ccc4ccccc4c3N=C2c2ccccc21
TGI [1]: 4.26 µM
TGI [2]: 11.8 µM
TGI [3]: 7.59 µM
TGI [4]: 21.6 µM
TGI [5]: > 100 µM
TGI [6]: 50.2 µM
TGI [7]: 7.92 µM
TGI [8]: > 100 µM
TGI [9]: 20.7 µM
TGI [10]: 3.51 µM
TGI [11]: 9.33 µM
TGI [12]: 20.9 µM
TGI [13]: 7.24 µM
TGI [14]: 21.4 µM
TGI [15]: 4.66 µM
TGI [16]: 16.4 µM
TGI [17]: 12.5 µM
TGI [18]: 32.5 µM
TGI [19]: 9.1 µM
TGI [20]: 31.1 µM
TGI [21]: 9.52 µM
TGI [22]: 14.8 µM
TGI [23]: 13.3 µM
TGI [24]: 23.7 µM
TGI [25]: 3.71 µM
TGI [26]: 4.32 µM
TGI [27]: 23.6 µM
TGI [28]: 10.3 µM
TGI [29]: 30.4 µM
TGI [30]: 5.29 µM
TGI [31]: 70.5 µM
TGI [32]: 3.46 µM
TGI [33]: 5.09 µM
TGI [34]: 38.8 µM
TGI [35]: 1500 nM
TGI [36]: 33.3 µM
TGI [37]: 10.2 µM
TGI [38]: 8.35 µM
TGI [39]: 34.2 µM
TGI [40]: 20.2 µM
TGI [41]: 10.7 µM
TGI [42]: 11.7 µM
TGI [43]: 47.8 µM
TGI [44]: > 100 µM
TGI [45]: 10.4 µM
TGI [46]: 69.3 µM
TGI [47]: 24.9 µM
TGI [48]: 25.2 µM
TGI [49]: 43 µM
TGI [50]: 24 µM
TGI [51]: 47 µM

COC1=CC(=O)c2nc3ccccc3c3ccnc1c23
TGI [1]: 26.3 µM
TGI [2]: > 65.5 µM
TGI [3]: 0.448 µM
TGI [4]: 13.9 µM
TGI [5]: 13.5 µM
TGI [6]: > 53.8 µM
TGI [7]: 48 µM
TGI [8]: > 22.8 µM
TGI [9]: 17 µM
TGI [10]: > 21.4 µM
TGI [52]: 22.7 µM
TGI [53]: 46.1 µM
TGI [11]: 21.8 µM
TGI [12]: 29.6 µM
TGI [13]: 0.38 µM
TGI [14]: 16 µM
TGI [15]: 10.8 µM
TGI [16]: 8.33 µM
TGI [17]: > 100 µM
TGI [18]: > 44.8 µM
TGI [19]: 10.7 µM
TGI [20]: > 31.3 µM
TGI [21]: > 45.1 µM
TGI [22]: 13.3 µM
TGI [23]: 13 µM
TGI [24]: 13.8 µM
TGI [25]: 15.2 µM
TGI [26]: 2.95 µM
TGI [54]: 18.8 µM
TGI [27]: > 69 µM
TGI [28]: > 48.7 µM
TGI [29]: > 47 µM
TGI [30]: > 100 µM
TGI [31]: > 65.4 µM
TGI [32]: 7 µM
TGI [33]: 20.5 µM
TGI [34]: 25.8 µM
TGI [35]: 2820 nM
TGI [36]: > 64.9 µM
TGI [37]: > 67.3 µM
TGI [38]: > 44.2 µM
TGI [39]: 35.1 µM
TGI [40]: 25.1 µM
TGI [41]: > 43.3 µM
TGI [55]: 11.8 µM
TGI [42]: 13.7 µM
TGI [43]: > 100 µM
TGI [56]: 41.5 µM
TGI [44]: 51.3 µM
TGI [45]: 12.5 µM
TGI [57]: 33 µM
TGI [46]: > 50.2 µM
TGI [47]: > 53.3 µM
TGI [58]: 16.2 µM
TGI [48]: 14.4 µM
TGI [49]: > 66.9 µM
TGI [50]: 19.7 µM
TGI [51]: 29.7 µM
